Measurements: US8680159B2, “Bradykinin 1 receptor modulating compounds” (Gruenenthal GmbH, priority 2010, dated 2014)

Molecular target: T1, human B1R receptor (CHO K1 cells stably transfected with the human B1R gene) (Homo sapiens, UniProt P46663)
T1 construct: expressed in transfected cells; host or cells: CHO K1 cells (Chinese hamster ovary), stably transfected
T1 sequence (P46663 1-353): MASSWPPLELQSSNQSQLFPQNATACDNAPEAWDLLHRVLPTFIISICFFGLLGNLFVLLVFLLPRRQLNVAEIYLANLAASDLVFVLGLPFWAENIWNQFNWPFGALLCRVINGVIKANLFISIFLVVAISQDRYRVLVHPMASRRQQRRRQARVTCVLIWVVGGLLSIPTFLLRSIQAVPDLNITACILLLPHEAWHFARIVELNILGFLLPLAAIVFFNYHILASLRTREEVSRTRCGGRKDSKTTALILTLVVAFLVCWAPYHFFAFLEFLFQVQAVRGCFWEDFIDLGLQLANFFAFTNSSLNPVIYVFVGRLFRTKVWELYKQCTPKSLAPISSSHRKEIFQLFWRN
Test: Functional study on the bradykinin receptor 1 (B1R), Ca2+ fluorescence (Fluo-4) FLIPR/Novostar assay, hB1R cells
Type: cell-based
Conditions: CHO-K1, read-out: % Inhibition (h-B1R) at 10 μM
Protocol: The agonistic or antagonistic action of substances can be quantified on the bradykinin receptor 1 (B1R) of the species human and rat using ectopically expressing cell lines (CHO K1 cells) and with the aid of a Ca^2+-sensitive dye (Fluo-4) using a fluorescent imaging plate reader (FLIPR). The indication in % activation is based on the Ca^2+ signal after addition of Lys-Des-Arg^9-bradykinin (0.5 nM) or Des-Arg^9-bradykinin (100 nM). Antagonists lead to suppression of the Ca^2+ influx after the addition of the agonist. % Inhibition compared with the maximum achievable inhibition is indicated.
The agonistic or antagonistic action of substances can be determined on the bradykinin receptor 1 (B1R) of the species human and rat using the following assay. According to this assay, the increase in intracellular Ca^2+ following administration of a B1R agonist is quantified with the aid of a Ca^2+-sensitive dye (Fluo-4 type, Molecular Probes Europe BV, Leiden, Netherlands) using a Fluorescent Imaging Plate Reader (FLIPR, Molecular Devices, Sunnyvale, USA) and/or using a Novostar (BMG Labtech GmbH, Offenburg, Germany).
Chinese hamster ovary cells (CHO K1 cells) which have been stably transfected with the human B1R gene (hB1R cells) or with the B1R gene of the rat (rB1R cells) are used. For functional studies, the cells are plated out on black 96-well plates having a clear base (BD Biosciences, Heidelberg, Germany or Greiner, Frickenhausen, Germany) in a density of 20,000-35,000 cells/well. The cells are left overnight at 37° C. and with 5% CO2 in culture medium (hB1R cells: Nutrient Mixture Ham's F12, Gibco Invitrogen GmbH, Karlsruhe, Germany or DMEM, Sigma-Aldrich, Taufkirchen, Germany; rB1R cells: D-MEM/F12, Gibco Invitrogen GmbH, Karlsruhe, Germany), with 10 vol. % FBS (fetal bovine serum, Gibco Invitrogen GmbH, Karlsruhe, Germany or PAN Biotech GmbH, Aidenbach, Germany). On the following day, the cells are loaded for 60 minutes at 37° C. with 2.13 μM Fluo-4 (Molecular Probes Europe BV, Leiden, Netherlands) in HBSS buffer (Hank's buffered saline solution, Gibco Invitrogen GmbH, Karlsruhe, Germany) […] (Sigma-Aldrich, Taufkirchen, Germany) and 10 mM HEPES (Sigma-Aldrich, Taufkirchen, Germany). The plates are then washed twice with HBSS buffer, and HBSS buffer additionally containing 0.1% BSA (bovine serum albumin; Sigma-Aldrich, Taufkirchen, Germany), 5.6 mM glucose and 0.05% gelatin (Merck KGaA, Darmstadt, Germany) is added to the plates. After incubation for a further 20 minutes at room temperature, the plates are inserted into the FLIPR or Novostar for Ca^2+ measurement. Alternatively, washing is carried out with buffer A (15 mM HEPES, 80 mM NaCl, 5 mM KCl, 1.2 mM CaCl2, 0.7 mM MgSO4, 2 g/l glucose, 2.5 mM probenecid) followed by loading with buffer A with added 2.5 μM Fluo-4 and 0.025% Pluronic F127 (Sigma-Aldrich, Taufkirchen, Germany). The cells are then washed twice with buffer A and incubated for 30 minutes at room temperature with buffer A additionally containing 0.05% BSA and 0.05% gelatin and are then inserted into the FLIPR or Novostar for Ca^2+ measurement. The Ca^2+-dependent fluorescence is measured before and after the addition of substances (λex=488 nm, λem=540 nm). Quantification is carried out by measuring the highest fluorescence intensity (FC, fluorescence counts) over time.
The FLIPR protocol consists of 2 substance additions, which are pipetted in the FLIPR. In the case of measurements using the Novostar, only the second substance addition is pipetted in the device. Both devices measure the fluorescence intensity over time. Test substances (10 μM) are first pipetted onto the cells and the intracellular Ca^2+ increase is compared with the control (hB1R: Lys-Des-Arg^9-bradykinin>=50 nM; rB1R: Des-Arg^9-bradykinin>=1 μM). This gives the % activation, based on the Ca^2+ signal after addition of Lys-Des-Arg^9-bradykinin (>=50 nM) or Des-Arg^9-bradykinin (>=1 μM). […]

Structure (SMILES) | inhibition at 10 µM [%]
Cc1cc(N2CCC(N(C)C(=O)c3ccc4c(c3)C(N(C)C(=O)CC(C)C)CC4)CC2)cc(C)n1 (stereo not drawn) [CC_H-90, N-[1-(2,6-Dimethyl-pyridin-4-yl)-piperidin-4-yl]-N-methyl-3-[methyl-(3-methyl-butanoyl)-amino]-2,3-dihydro-1H-indene-5-carboxylic acid amide] | 100
Cc1cc(N2CCC(N(C)C(=O)c3ccc4c(c3)C(N(C)C(=O)c3c(C)cccc3C)CC4)CC2)cc(C)n1 (stereo not drawn) [CC_H-91, 3-[(2,6-Dimethyl-benzoyl)-methyl-amino]-N-[1-(2,6-dimethyl-pyridin-4-yl)-piperidin-4-yl]-N-methyl-2,3-dihydro-1H-indene-5-carboxylic acid amide] | 99
Cc1cc(N2CCC(N(C)C(=O)c3ccc4c(c3)C(N(C)C(=O)c3cncnc3)CC4)CC2)cc(C)n1 (stereo not drawn) [CC_H-92, N-[6-[[1-(2,6-Dimethyl-pyridin-4-yl)-piperidin-4-yl]-methyl-carbamoyl]-2,3-dihydro-1H-inden-1-yl]-N-methyl-pyrimidine-5-carboxylic acid amide] | 98
CN(C(=O)c1ccc2c(c1)C(NS(=O)(=O)c1c(Cl)cccc1C(F)(F)F)CC2(C)C)C1CCN(c2ccncc2)CC1 (stereo not drawn) [CC_H-93, 3-[[[2-Chloro-6-(trifluoromethyl)-phenyl]sulfonyl]amino]-N,1,1-trimethyl-N-(1-pyridin-4-yl-piperidin-4-yl)-2,3-dihydro-indene-5-carboxylic acid amide] | 100
CN(C(=O)NC1CCCc2ccc(C(=O)N(C)C3CCN(c4ccncc4)CC3)cc21)c1ccccc1Cl (stereo not drawn) [CC_H-94, 8-[[(2-Chlorophenyl)-methyl-carbamoyl]amino]-N-methyl-N-(1-pyridin-4-yl-piperidin-4-yl)-5,6,7,8-tetrahydro-naphthalene-2-carboxylic acid amide] | 100
CN(C(=O)c1ccc2c(c1)C(NC(=O)C(C)(C)c1ccccc1Cl)CC2(C)C)C1CCN(c2ccncc2)CC1 (stereo not drawn) [CC_H-95, 3-[[2-(2-Chlorophenyl)-2-methyl-propanoyl]amino]-N,1,1-trimethyl-N-(1-pyridin-4-yl-piperidin-4-yl)-2,3-dihydro-indene-5-carboxylic acid amide] | 100
Cc1cc(N2CCC(N(C)C(=O)c3ccc4c(c3)C(NC(=O)c3cccc(Cl)c3Cl)CC4)CC2)cc(C)n1 (stereo not drawn) [CC_H-96, 3-[(2,3-Dichloro-benzoyl)amino]-N-[1-(2,6-dimethyl-pyridin-4-yl)-piperidin-4-yl]-N-methyl-2,3-dihydro-1H-indene-5-carboxylic acid amide] | 100
CN(C(=O)c1ccc2c(c1)C(NC(=O)C(C)(C)c1ccccc1Cl)CCO2)C1CCN(c2ccncc2)CC1 (stereo not drawn) [CC_H-97, 4-[[2-(2-Chlorophenyl)-2-methyl-propanoyl]amino]-N-methyl-N-(1-pyridin-4-yl-piperidin-4-yl)-3,4-dihydro-2H-chromene-6-carboxylic acid amide] | 92
CN(C(=O)c1ccc2c(c1)C(NC(=O)C(C)(C)c1ccccc1Cl)CC2)C1CCN(c2ccc3cnccc3c2)CC1 (stereo not drawn) [CC_H-98, 3-[[2-(2-Chlorophenyl)-2-methyl-propanoyl]amino]-N-(1-isoquinolin-6-yl-piperidin-4-yl)-N-methyl-2,3-dihydro-1H-indene-5-carboxylic acid amide] | 92
Cc1cc(N2CCC(N(C)C(=O)c3ccc4c(c3)C(NC(=O)c3ccccc3Cl)CC4)CC2)cc(C)n1 (stereo not drawn) [CC_H-99, 3-[(2-Chloro-benzoyl)amino]-N-[1-(2,6-dimethyl-pyridin-4-yl)-piperidin-4-yl]-N-methyl-2,3-dihydro-1H-indene-5-carboxylic acid amide] | 100
CN(C(=O)c1ccc2c(c1)CCC2NC(=O)C(C)(C)c1ccccc1Cl)C1CCN(c2ccncc2)CC1 (stereo not drawn) [CC_H-100, 1-[[2-(2-Chlorophenyl)-2-methyl-propanoyl]amino]-N-methyl-N-(1-pyridin-4-yl-piperidin-4-yl)-2,3-dihydro-1H-indene-5-carboxylic acid amide] | 77
O=C(CCC1CCCC1)NC1CCc2ccc(C(=O)NCCC3CCN(c4ccncc4)CC3)cc21 (stereo not drawn) [CC_H-101, 3-(3-Cyclopentyl-propanoylamino)-N-[2-(1-pyridin-4-yl-piperidin-4-yl)-ethyl]-2,3-dihydro-1H-indene-5-carboxylic acid amide] | 100
CN(C(=O)c1ccc2c(c1)C(NC(=O)C(C)(C)c1ccccc1Cl)CCC2)C1CCN(c2ccncc2)CC1 (stereo not drawn) [CC_H-102, 8-[[2-(2-Chlorophenyl)-2-methyl-propanoyl]amino]-N-methyl-N-(1-pyridin-4-yl-piperidin-4-yl)-5,6,7,8-tetrahydro-naphthalene-2-carboxylic acid amide] | 99
CC(C)(C(=O)NC1CCc2ccc(C(=O)NCCC3CCN(c4ccncc4)CC3)cc21)c1ccccc1Cl (stereo not drawn) [CC_H-103, 3-[[2-(2-Chlorophenyl)-2-methyl-propanoyl]amino]-N-[2-(1-pyridin-4-yl-piperidin-4-yl)-ethyl]-2,3-dihydro-1H-indene-5-carboxylic acid amide] | 89
CN(C(=O)NC1CCc2ccc(C(=O)N(C)C3CCN(c4ccc5cnccc5c4)CC3)cc21)c1ccccc1Cl (stereo not drawn) [CC_H-104, 3-[[(2-Chlorophenyl)-methyl-carbamoyl]amino]-N-(1-isoquinolin-6-yl-piperidin-4-yl)-N-methyl-2,3-dihydro-1H-indene-5-carboxylic acid amide] | 100
Cc1cccc(C)c1C(=O)NC1CCc2ccc(C(=O)NCCC3CCN(c4ccncc4)CC3)cc21 (stereo not drawn) [CC_H-105, 3-[(2,6-Dimethyl-benzoyl)amino]-N-[2-(1-pyridin-4-yl-piperidin-4-yl)-ethyl]-2,3-dihydro-1H-indene-5-carboxylic acid amide] | 90
CN(C(=O)c1ccc2c(c1)C(N(C)C(=O)c1ccccc1Cl)CC2)C1CCN(c2ccncc2)CC1 (stereo not drawn) [CC_H-106, 3-[(2-Chloro-benzoyl)-methyl-amino]-N-methyl-N-(1-pyridin-4-yl-piperidin-4-yl)-2,3-dihydro-1H-indene-5-carboxylic acid amide] | 100
Cc1cc(N2CCC(N(C)C(=O)c3ccc4c(c3)C(NC(=O)c3c(Cl)cccc3C(F)(F)F)CC4)CC2)cc(C)n1 (stereo not drawn) [CC_H-107, 3-[[2-Chloro-6-(trifluoromethyl)-benzoyl]amino]-N-[1-(2,6-dimethyl-pyridin-4-yl)-piperidin-4-yl]-N-methyl-2,3-dihydro-1H-indene-5-carboxylic acid amide] | 97
